Assay results taken from EPA's ToxRefDB 2.

Key:
mouse [1] = conditions: Subchronic oral toxicity in rodents, cd1, Feed, dose end: 13 week, group: systemic, systemic / clinical chemistry / alkaline phosphatase (alp/alk) / alkaline phosphatase (alp/alk) + systemic / in life observation / clinical …
mouse [2] = conditions: Subchronic oral toxicity in rodents, cd1, Feed, dose end: 6 week, group: systemic, systemic / in life observation / body weight / body weight gain + systemic / organ weight / liver / absolute + systemic / organ weight / …
dog [3] = conditions: Chronic toxicity, beagle, Oral, Feed, dose end: 12 month, group: systemic
rat [4] = conditions: Multigenerational reproductive toxicity study, sprague dawley, Oral, Feed, dose end: 2 generation
rat [5] = conditions: Subchronic oral toxicity in rodents, sprague dawley, Feed, dose end: 13 week, group: systemic
mouse [6] = conditions: Carcinogenicity, cd1, Oral, Feed, dose end: 18 month, group: systemic
dog [7] = conditions: Subchronic oral toxicity in nonrodent, beagle, Feed, dose end: 6 week, group: systemic, systemic / in life observation / body weight / body weight gain + systemic / clinical chemistry / alanine aminotransferase (alt/sgpt) / …
mouse [8] = conditions: Carcinogenicity, cd1, Oral, Feed, dose end: 19 month, group: systemic
rat [9] = conditions: Combined chronic toxicity/carcinogenicity; other; Oral; Feed; dose end: 102 week; group: systemic; systemic / pathology microscopic / kidney / degeneration + systemic / pathology microscopic / kidney / dilatation + systemic / pathology …
dog [10] = conditions: Chronic toxicity, beagle, Oral, Feed, dose end: 52 week, group: systemic
rat [11] = conditions: Subchronic oral toxicity in rodents, sprague dawley, Feed, dose end: 13 week, group: systemic, systemic / clinical chemistry / urea nitrogen / urea nitrogen + systemic / clinical chemistry / creatinine / creatinine + systemic / …
dog [12] = conditions: Subchronic oral toxicity in nonrodent, beagle, Feed, dose end: 90 day, group: systemic
rat [13] = conditions: Subchronic oral toxicity in rodents, sprague dawley, Feed, dose end: 90 day, group: systemic
[14] = systemic / clinical chemistry / alanine aminotransferase (alt/sgpt) / alanine aminotransferase (alt/sgpt) + systemic / clinical chemistry / …
[15] = systemic / in life observation / clinical signs / moribundity
[16] = group: offspring, systemic / in life observation / body weight / offspring (pup) weight
[17] = group: offspring, systemic / in life observation / body weight / offspring (pup) weight + systemic / organ weight / liver / relative to body weight
[18] = group: parental, systemic / in life observation / body weight / body weight
[19] = systemic / clinical chemistry / albumin-globulin ratio / albumin-globulin ratio + systemic / organ weight / liver / relative to body weight
[20] = systemic / in life observation / body weight / body weight + systemic / in life observation / body weight / body weight gain + systemic / in…
[21] = systemic / in life observation / body weight / body weight + systemic / in life observation / body weight / body weight gain
[22] = systemic / in life observation / body weight / body weight gain + systemic / clinical chemistry / alkaline phosphatase (alp/alk) / alkaline …
[23] = systemic / organ weight / ovary / absolute + systemic / organ weight / ovary / relative to body weight + systemic / organ weight / ovary / …

Compound: O=C(O)C1(C(=O)Nc2ccc(Cl)cc2Cl)CC1 [Cyclanilide]
- LEL (mouse [1]): 364 mg/kg/day
- LOAEL (mouse [1]): 364 mg/kg/day
- NEL (mouse [1]): 38 mg/kg/day
- NOAEL (mouse [1]): 38 mg/kg/day
- LEL (mouse [2]): 552 mg/kg/day
- LOAEL (mouse [2]): 552 mg/kg/day
- NEL (mouse [2]): 192 mg/kg/day
- NOAEL (mouse [2]): 192 mg/kg/day
- LOAEL (dog [3]; [14]): 21.2 mg/kg/day
- NOAEL (dog [3]; [14]): 5.3 mg/kg/day
- LEL (dog [3]; [15]): 1.3 mg/kg/day
- NEL (dog [3]; [15]): < 1.3 mg/kg/day
- LEL (rat [4]; [16]): 20.2 mg/kg/day
- LOAEL (rat [4]; [16]): 20.2 mg/kg/day
- NEL (rat [4]; [17]): 2 mg/kg/day
- NOAEL (rat [4]; [17]): 2 mg/kg/day
- LEL (rat [4]; [18]): 2 mg/kg/day
- LOAEL (rat [4]; [18]): 2 mg/kg/day
- NEL (rat [4]; [18]): < 2 mg/kg/day
- NOAEL (rat [4]; [18]): < 2 mg/kg/day
- LEL (rat [5]; [19]): 32.1 mg/kg/day
- NEL (rat [5]; [19]): < 32.1 mg/kg/day
- LOAEL (rat [5]; [20]): 113 mg/kg/day
- NOAEL (rat [5]; [20]): 54.6 mg/kg/day
- LEL (mouse [6]; [21]): 8.41 mg/kg/day
- LOAEL (mouse [6]; [21]): 168 mg/kg/day
- NEL (mouse [6]; [21]): < 8.41 mg/kg/day
- NOAEL (mouse [6]; systemic / in life observation / body weight / body weight + systemic / in life observation / body weight / body weight gain + systemic / …): 41.8 mg/kg/day
- LOAEL (dog [7]): > 20 mg/kg/day
- NOAEL (dog [7]): ≥ 20 mg/kg/day

Compound: CC1=C(C(=O)Nc2ccccc2)SCCO1 [Carboxin]
- LOAEL (mouse [8]; systemic / in life observation / mortality / mortality): 451 mg/kg/day
- NOAEL (mouse [8]; systemic / in life observation / mortality / mortality + systemic / pathology microscopic / liver / hypertrophy): 9 mg/kg/day
- LEL (mouse [8]; systemic / pathology microscopic / liver / hypertrophy): 385 mg/kg/day
- NEL (mouse [8]; systemic / pathology microscopic / liver / hypertrophy + systemic / pathology microscopic / lung / adenoma): 8 mg/kg/day
- LEL (rat [9]): 9 mg/kg/day
- LOAEL (rat [9]): 9 mg/kg/day
- NEL (rat [9]): 0.8 mg/kg/day
- NOAEL (rat [9]): 0.8 mg/kg/day
- LOAEL (dog [10]; systemic / in life observation / body weight / body weight gain): 15 mg/kg/day
- NEL (dog [10]; [22]): 1.3 mg/kg/day
- NOAEL (dog [10]; [22]): 1.3 mg/kg/day
- LEL (dog [10]; systemic / in life observation / body weight / body weight gain + systemic / hematology / mean corpuscular (cell) volume (mcv) / mean …): 15 mg/kg/day
- LEL (rat [11]): 10 mg/kg/day
- LOAEL (rat [11]): 10 mg/kg/day
- NEL (rat [11]): < 10 mg/kg/day
- NOAEL (rat [11]): < 10 mg/kg/day
- LOAEL (dog [12]; [23]): 17.7 mg/kg/day
- NEL (dog [12]; [23]): 5.9 mg/kg/day
- NOAEL (dog [12]; [23]): 9 mg/kg/day
- LEL (dog [12]; systemic / pathology microscopic / parathyroid gland / cyst + systemic / pathology microscopic / pituitary gland / cyst): 9 mg/kg/day
- LOAEL (rat [13]; systemic / pathology microscopic / kidney / nephropathy): 10.5 mg/kg/day
- NOAEL (rat [13]; systemic / pathology microscopic / kidney / nephropathy + systemic / in life observation / clinical signs / defecation): 5.5 mg/kg/day
